Experimental data reported in ChEMBL document CHEMBL1139966, “ERbeta ligands. Part 6: 6H-Chromeno[4,3-b]quinolines as a new series of estrogen receptor beta-selective ligands” (Bioorg Med Chem Lett, 2007).

organism: Homo sapiens; test: Selectivity for human ERalpha over ERbeta

Row | Ratio IC50 | SMILES
1 | 14 | CCc1c2c(nc3ccc(O)cc13)-c1ccc(O)cc1OC2
2 | 16 | Oc1ccc2c(c1)OCc1c-2nc2ccc(O)cc2c1-c1ccc(C(F)(F)F)cc1
3 | 10 | COc1cccc(-c2c3c(nc4ccc(O)cc24)-c2ccc(O)cc2OC3)c1
4 | 46 | Oc1ccc(-c2cc(Cl)c3cc(O)ccc3n2)cc1
5 | 27 | Oc1ccc2c(c1)OCc1c-2nc2ccc(O)cc2c1Cl
6 | 16 | Oc1ccc2c(c1)OCc1c-2nc2ccc(O)cc2c1Br
7 | 16 | N#Cc1ccc(-c2c3c(nc4ccc(O)cc24)-c2ccc(O)cc2OC3)cc1
8 | 15 | Oc1ccc2c(c1)OCc1c-2nc2ccc(O)cc2c1-c1ccc(Cl)cc1
9 | 4 | Oc1ccc2c(c1)OCc1c-2nc2ccc(O)cc2c1-c1cccc(Cl)c1
10 | 16 | N#Cc1c2c(nc3ccc(O)cc13)-c1ccc(O)cc1OC2
11 | 24 | C=Cc1c2c(nc3ccc(O)cc13)-c1ccc(O)cc1OC2
12 | 12 | CCc1cc(-c2ccc(O)cc2)nc2ccc(O)cc12
13 | 6 | COc1ccc(-c2c3c(nc4ccc(O)cc24)-c2ccc(O)cc2OC3)cc1
14 | 20 | C#Cc1cc(-c2ccc(O)cc2)nc2ccc(O)cc12
15 | 12 | C#Cc1c2c(nc3ccc(O)cc13)-c1ccc(O)cc1OC2
16 | 8 | N#Cc1cccc(-c2c3c(nc4ccc(O)cc24)-c2ccc(O)cc2OC3)c1
